These results are taken from US10689383B2, “Optionally fused heterocyclyl-substituted derivatives of pyrimidine useful for the treatment of inflammatory, metabolic, oncologic and autoimmune diseases” (NUEVOLUTION A/S, priority 2014, dated 2020).

Test [1] concerns the target T1, human RORγt (Ligand Binding Domain) (Homo sapiens, UniProt P51449).
T1 construct: purchased Crelux (Planegg, Germany) batch no PC5032-1
T1 sequence (P51449 269-508 limits assumed): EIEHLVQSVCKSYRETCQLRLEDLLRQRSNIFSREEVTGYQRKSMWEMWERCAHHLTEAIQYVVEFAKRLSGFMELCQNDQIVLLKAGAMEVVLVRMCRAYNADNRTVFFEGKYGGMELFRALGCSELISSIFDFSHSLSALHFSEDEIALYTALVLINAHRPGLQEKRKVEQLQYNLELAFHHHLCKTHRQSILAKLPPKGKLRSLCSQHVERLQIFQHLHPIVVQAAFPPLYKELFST
The experiment in a line: Fluorescence Polarization (FP) Assay. The note with it: Fluorescence Polarization (FP) Assay; values given as upper bounds of activity ranges; read-out: FP activity range. Summed up: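 Binding to the ligand pocket followed by fluorescence polarization with a TAMRA-tagged RORγt ligand probe of 910 g/mole. Negative control wells received DMSO only.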
(Fluorescence polarisation rises when a labelled molecule tumbles more slowly, as on binding a larger partner.)

The target of test [2] is T2, yeast Gal4-DNA binding domain fused to the ligand binding domain of human RORγ (Homo sapiens, UniProt P51449).
T2 construct: host or cells: HEK293t
T2 sequence (P51449 269-508 limits assumed): T1 sequence (P51449 269-508 limits assumed)
As to the kind of experiment: RORγ Reporter Assay (Gal4). The test is classed as cell-based. The note with it: values given as lower bounds of ranges; for Gal4 activity range @ 0.1 μM (% inhibition): RORγ Reporter Assay (Gal4) at 0.1 μM; for Gal4 activity range @ 1 μM (% inhibition): RORγ Reporter Assay (Gal4) at 1 μM. Summed up: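 Compound at final 1,000 or 100 nM (0.1% DMSO, triplicate) was added to the transfected HEK293t cells carrying a Gal4-UAS luciferase reporter for 24 h at 37 °C, 10% charcoal-stripped FBS. Activity reduction expressed as percent of vehicle-only luciferase signal.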
In general terms: A reporter such as luciferase makes a cellular process visible.

On to `NC(=O)Cc1ccc(CNc2ncnc(N3CC(F)(F)CC3c3ccc(C(F)(F)F)cc3)c2F)cc1` (stereo not drawn) [Example 231, 2-[4-[[[6-[4,4-difluoro-2-[4-(trifluoromethyl)phenyl]pyrrolidin-1-yl]-5-fluoro-pyrimidin-4-yl]amino]methyl]phenyl]acetamide], for which, in test [1], the IC50 is under 500 nM. Further, in test [2], the “Gal4 activity range @ 0.1 μM (% inhibition)” value is recorded as over 50 % inhibition and the “Gal4 activity range @ 1 μM (% inhibition)” value is over 80 % inhibition.

In the case of `NC(=O)Cc1ccc(CNc2ncnc(N3CCC[C@@H]3c3ccc(C(F)(F)F)cc3F)c2F)cc1` [Example 232, 2-[4-[[[5-fluoro-6-[(2R)-2-[2-fluoro-4-(trifluoromethyl)phenyl]pyrrolidin-1-yl]pyrimidin-4-yl]amino]methyl]phenyl]acetamide], the IC50 in test [1] is under 500 nM. Besides, in test [2], the “Gal4 activity range @ 0.1 μM (% inhibition)” value was over 50 % inhibition and the “Gal4 activity range @ 1 μM (% inhibition)” value was over 80 % inhibition.

`CC(=O)N1CCC(CNc2ncnc(N3CCOC[C@@H]3c3ccc(C(F)(F)F)cc3)c2F)CC1` [Example 233, 1-[4-[[[5-fluoro-6-[(3S)-3-[4-(trifluoromethyl)phenyl]morpholin-4-yl]pyrimidin-4-yl]amino]methyl]-1-piperidyl]ethanone]: the IC50 in test [1] is under 500 nM. In test [2], the “Gal4 activity range @ 0.1 μM (% inhibition)” value was over 20 % inhibition and the “Gal4 activity range @ 1 μM (% inhibition)” value is over 80 % inhibition.

In the case of `O=S1(=O)CCC(O)(CNc2ncnc(N3CCOC[C@@H]3c3ccc(C(F)(F)F)cc3)c2F)CC1` [Example 234, 4-[[[5-fluoro-6-[(3S)-3-[4-(trifluoromethyl)phenyl]morpholin-4-yl]pyrimidin-4-yl]amino]methyl]-1,1-dioxo-thian-4-ol], in test [1], the IC50 is under 1000 nM. In addition, in test [2], the “Gal4 activity range @ 0.1 μM (% inhibition)” value was over 0 % inhibition and the “Gal4 activity range @ 1 μM (% inhibition)” value was over 50 % inhibition.

In the case of `CC1(CNc2ncnc(N3CCOC[C@@H]3c3ccc(C(F)(F)F)cc3)c2F)COC1` [Example 235, 5-fluoro-N-[(3-methyloxetan-3-yl)methyl]-6-[(3S)-3-[4-(trifluoromethyl)phenyl]morpholin-4-yl]pyrimidin-4-amine], in test [1], the IC50 is under 2000 nM. In test [2], the “Gal4 activity range @ 0.1 μM (% inhibition)” value is over 0 % inhibition and the “Gal4 activity range @ 1 μM (% inhibition)” value is over 50 % inhibition.

For `O=S(=O)(NC1CC1)c1ccc(CNc2ncnc(N3CCOC[C@@H]3c3ccc(C(F)(F)F)cc3)c2F)cc1` [Example 236, N-cyclopropyl-4-[[[5-fluoro-6-[(3S)-3-[4-(trifluoromethyl)phenyl]morpholin-4-yl]pyrimidin-4-yl]amino]methyl] benzenesulfonamide], in test [1], the IC50 is under 500 nM. Further, in test [2], the “Gal4 activity range @ 0.1 μM (% inhibition)” value is over 80 % inhibition and the “Gal4 activity range @ 1 μM (% inhibition)” value was over 80 % inhibition.

On to `CS(=O)(=O)N1CCC(CNc2ncnc(N3CCOC[C@@H]3c3ccc(C(F)(F)F)cc3)c2F)CC1` [Example 237, 5-fluoro-N-[(1-methylsulfonyl-4-piperidyl)methyl]-6-[(3S)-3-[4-(trifluoromethyl)phenyl]morpholin-4-yl]pyrimidin-4-amine], for which, in test [1], the IC50 is under 500 nM. In addition, in test [2], the “Gal4 activity range @ 0.1 μM (% inhibition)” value is on record as over 80 % inhibition and the “Gal4 activity range @ 1 μM (% inhibition)” value is over 80 % inhibition.

In the case of `OC1(CNc2ncnc(N3CCOC[C@@H]3c3ccc(C(F)(F)F)cc3)c2F)CCOC1` (stereo partly drawn) [Example 238, 3-[[[5-fluoro-6-[(3S)-3-[4-(trifluoromethyl)phenyl]morpholin-4-yl]pyrimidin-4-yl]amino]methyl]tetrahydrofuran-3-ol], the IC50 in test [1] was under 10000 nM. For the same compound, in test [2], the “Gal4 activity range @ 0.1 μM (% inhibition)” value was over 0 % inhibition and the “Gal4 activity range @ 1 μM (% inhibition)” value is on record as over 50 % inhibition.

For the compound `OCCC1(CNc2ncnc(N3CCOC[C@@H]3c3ccc(C(F)(F)F)cc3)c2F)CCOCC1` [Example 239, 2-[4-[[[5-fluoro-6-[(3S)-3-[4-(trifluoromethyl)phenyl]morpholin-4-yl]pyrimidin-4-yl]amino]methyl]tetrahydropyran-4-yl]ethanol], in test [1], the IC50 was under 500 nM. Moreover, in test [2], the “Gal4 activity range @ 0.1 μM (% inhibition)” value is recorded as over 20 % inhibition and the “Gal4 activity range @ 1 μM (% inhibition)” value is reported as over 80 % inhibition.

As to `CS(=O)(=O)CC1(CNc2ncnc(N3CCC[C@@H]3c3ccc(C(F)(F)F)cc3)c2F)CCOCC1` [Example 240, 5-fluoro-N-[[4-(methylsulfonylmethyl)tetrahydropyran-4-yl]methyl]-6-[(2R)-2-[4-(trifluoromethyl)phenyl]pyrrolidin-1-yl]pyrimidin-4-amine], the IC50 in test [1] was under 500 nM. In test [2], the “Gal4 activity range @ 0.1 μM (% inhibition)” value is over 80 % inhibition and the “Gal4 activity range @ 1 μM (% inhibition)” value was over 80 % inhibition.

In the case of `NC(=O)CC1CCC(CNc2ncnc(N3CCOC[C@@H]3c3ccc(OC(F)(F)F)cc3)c2F)CC1` (stereo partly drawn) [Example 245, 2-[4-[[[5-fluoro-6-[(3S)-3-[4-(trifluoromethoxy)phenyl]morpholin-4-yl]pyrimidin-4-yl]amino]methyl]cyclohexyl] acetamide], the IC50 in test [1] was under 1000 nM. In addition, in test [2], the “Gal4 activity range @ 0.1 μM (% inhibition)” value is reported as over 20 % inhibition and the “Gal4 activity range @ 1 μM (% inhibition)” value is over 80 % inhibition.

Regarding `Fc1c(NCc2ccc(Cc3nnn[nH]3)cc2)ncnc1N1CCOC[C@@H]1c1ccc(OC(F)(F)F)cc1` [Example 246, 5-fluoro-N-[[4-(1H-tetrazol-5-ylmethyl)phenyl]methyl]-6-[(3S)-3-[4-(trifluoromethoxy)phenyl]morpholin-4-yl]pyrimidin-4-amine], the IC50 in test [1] was under 500 nM. In test [2], the “Gal4 activity range @ 0.1 μM (% inhibition)” value was over 20 % inhibition and the “Gal4 activity range @ 1 μM (% inhibition)” value is reported as over 80 % inhibition.

Take `Fc1c(NCC2CCOCC2)ncnc1N1CCOC[C@@H]1c1ccc(C(F)(F)F)cc1` [Example 247, 5-fluoro-N-(tetrahydropyran-4-ylmethyl)-6-[(3S)-3-[4-(trifluoromethyl)phenyl]morpholin-4-yl]pyrimidin-4-amine]: in test [1], the IC50 is under 10000 nM. Further, in test [2], the “Gal4 activity range @ 0.1 μM (% inhibition)” value is listed as over 20 % inhibition and the “Gal4 activity range @ 1 μM (% inhibition)” value is over 80 % inhibition.

In the case of `CC1CC(c2ccc(C(F)(F)F)cc2)N(c2ncnc(NCc3ccc(CC(N)=O)cc3)c2F)C1` (stereo not drawn) [Example 248, 2-[4-[[[5-fluoro-6-[4-methyl-2-[4-(trifluoromethyl)phenyl]pyrrolidin-1-yl]pyrimidin-4-yl]amino]methyl]phenyl]acetamide], in test [1], the IC50 was under 1000 nM. Also, in test [2], the “Gal4 activity range @ 0.1 μM (% inhibition)” value is listed as over 20 % inhibition and the “Gal4 activity range @ 1 μM (% inhibition)” value is over 80 % inhibition.

For the compound `NC(=O)Cc1ccc(Cn2ccc3c(N4CCOC[C@@H]4c4ccc(OC(F)(F)F)cc4)ncnc32)cc1` [Example 252, 2-[4-[[4-[(3S)-3-[4-(trifluoromethoxy)phenyl]morpholin-4-yl]pyrrolo[2,3-d]pyrimidin-7-yl]methyl]phenyl]acetamide], in test [1], the IC50 is under 500 nM. In test [2], the “Gal4 activity range @ 0.1 μM (% inhibition)” value is over 80 % inhibition and the “Gal4 activity range @ 1 μM (% inhibition)” value was over 80 % inhibition.

With `CS(=O)(=O)CC1(CNc2ncnc(N3CCOC[C@@H]3c3ccc(C(F)(F)F)cc3)c2F)CCOCC1` [Example 253, 5-fluoro-N-[[4-(methylsulfonylmethyl)tetrahydropyran-4-yl]methyl]-6-[(3S)-3-[4-(trifluoromethyl)phenyl]morpholin-4-yl]pyrimidin-4-amine], the IC50 in test [1] was under 1000 nM. In test [2], the “Gal4 activity range @ 0.1 μM (% inhibition)” value was over 50 % inhibition and the “Gal4 activity range @ 1 μM (% inhibition)” value is over 80 % inhibition.

For `COC(=O)C1(CNc2ncnc(N3CCOCC3c3ccc(C(F)(F)F)cc3)c2F)CCOCC1` (stereo not drawn) [Example 254, methyl 4-[[[5-fluoro-6-[3-[4-(trifluoromethyl)phenyl]morpholin-4-yl]pyrimidin-4-yl]amino]methyl]tetrahydropyran-4-carboxylate], in test [1], the IC50 was under 500 nM. Moreover, in test [2], the “Gal4 activity range @ 0.1 μM (% inhibition)” value is over 50 % inhibition and the “Gal4 activity range @ 1 μM (% inhibition)” value is given as over 80 % inhibition.

`NC(=O)C1(CNc2ncnc(N3CCOC[C@@H]3c3ccc(C(F)(F)F)cc3)c2F)CCOCC1` [Example 255, 4-[[[5-fluoro-6-[(3S)-3-[4-(trifluoromethyl)phenyl]morpholin-4-yl]pyrimidin-4-yl]amino]methyl]tetrahydropyran-4-carboxamide]: the IC50 in test [1] was under 2000 nM. For the same compound, in test [2], the “Gal4 activity range @ 0.1 μM (% inhibition)” value is listed as over 20 % inhibition and the “Gal4 activity range @ 1 μM (% inhibition)” value is on record as over 50 % inhibition.

Regarding `N#CC1(CNc2ncnc(N3CCOC[C@@H]3c3ccc(C(F)(F)F)cc3)c2F)CCOCC1` [Example 257, 4-[[[5-fluoro-6-[(3S)-3-[4-(trifluoromethyl)phenyl]morpholin-4-yl]pyrimidin-4-yl]amino]methyl]tetrahydropyran-4-carbonitrile], the IC50 in test [1] is under 500 nM. Moreover, in test [2], the “Gal4 activity range @ 0.1 μM (% inhibition)” value is over 50 % inhibition and the “Gal4 activity range @ 1 μM (% inhibition)” value is reported as over 80 % inhibition.
